Series [1] has as its system murine hepatitis virus (MHV). The experiment in a line: microbe, parasite or virus in culture. The series is classed as cell-based.
Series [2] relates to SARS-CoV-2. The experiment in a line: microbe, parasite or virus in culture. The series is classed as cell-based. Conditions: Severe acute respiratory syndrome coronavirus 2, A549-ACE2.
Series [3] deals with HCoV 229E. The experiment in a line: HCoV 229E antiviral assay in Huh-7 cells. The series is classed as cell-based, human coronavirus 229E. Conditions: 5 μM.
Series [4] can be described thus: Cytotoxicity in Caco-2 cells (CC50). The series is classed as cell-based. Conditions: human.
In series [5] the test system is SARS-CoV-2. Also noted: species or system K18-hACE2 mice. The conditions noted are these: mouse, in vivo.
The conditions of series [6]: in vivo; cited from earlier work.
Series [7] has as its system SARS-CoV-2 (isolate USA WA1/2020).
The subject of series [8] is VEGF. Conditions: by day 28, severe COVID-19; cited from earlier work.

“Also recorded” adds a separate entry of the source. Like-named read-outs stand apart in the source and are kept apart here. A value given as a limit tells only on which side of the number the result lay.

Chain of VEGF (P15692 207-311 limits assumed): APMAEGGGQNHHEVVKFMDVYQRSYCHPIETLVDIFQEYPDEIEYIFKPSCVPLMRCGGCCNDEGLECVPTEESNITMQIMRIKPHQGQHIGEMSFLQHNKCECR

Take `CN(C)C/C=C/C(=O)Nc1cc2c(Nc3ccc(F)c(Cl)c3)ncnc2cc1O[C@H]1CCOC1` [Afatinib]: in series [1] (Murine coronavirus, DBT cells), the inhibition (usually the change of the read-out against control, counted positive when it falls) at 10 µM was found to be 98%.

With `CCc1cc2c(cc1N1CCC(N3CCOCC3)CC1)C(C)(C)c1[nH]c3cc(C#N)ccc3c1C2=O` [Alectinib], in series [1] (Murine coronavirus, DBT cells), the inhibition at 10 µM stood at 62%.

On to `COc1cc(N2CCC(N3CCN(C)CC3)CC2)ccc1Nc1ncc(Cl)c(Nc2ccccc2P(C)(C)=O)n1` [Brigatinib], for which the inhibition at 10 µM in series [1] (Murine coronavirus, DBT cells) worked out at 39%.

For `COc1cc2nccc(Oc3ccc(NC(=O)C4(C(=O)Nc5ccc(F)cc5)CC4)cc3)c2cc1OC` [Cabozantinib], in series [1] (Murine coronavirus, DBT cells), the inhibition at 10 µM was found to be 61%.

For the compound `CCS(=O)(=O)N1CCN(c2ccc(Nc3ncc(C(N)=O)c(NC4CC4)n3)cc2)CC1` [Cerdulatinib], the inhibition at 10 µM in series [1] (Murine coronavirus, DBT cells) turned out to be 78%.

`Cc1cc(Nc2ncc(Cl)c(Nc3ccccc3S(=O)(=O)C(C)C)n2)c(OC(C)C)cc1C1CCNCC1` [Ceritinib]: in series [1] (Murine coronavirus, DBT cells), the inhibition at 10 µM was 94%.

`O=C(c1ccc(F)c(F)c1Nc1ccc(I)cc1F)N1CC(O)([C@@H]2CCCCN2)C1` [Cobimetinib]: in series [1] (Murine coronavirus, DBT cells), the inhibition at 10 µM was found to be 82%.

With `CC(C)(C)c1nc(-c2cccc(NS(=O)(=O)c3c(F)cccc3F)c2F)c(-c2ccnc(N)n2)s1` [Dabrafenib], in series [1] (Murine coronavirus, DBT cells), the inhibition at 10 µM was -12%.

As for `Cc1nc(Nc2ncc(C(=O)Nc3c(C)cccc3Cl)s2)cc(N2CCN(CCO)CC2)n1` [Dasatinib], in series [1] (Murine coronavirus, DBT cells), the inhibition at 10 µM was 65%.

Turning to `CNC(=O)c1ccc(Nc2ncc(C(F)(F)F)c(NCc3nccnc3N(C)S(C)(=O)=O)n2)cc1` [Defactinib], the inhibition at 10 µM in series [1] (Murine coronavirus, DBT cells) is 36%.

Regarding `CN1CCN(c2ccc(C(=O)Nc3n[nH]c4ccc(Cc5cc(F)cc(F)c5)cc34)c(NC3CCOCC3)c2)CC1` [Entrectinib], the midpoint of inhibition in series [2], the IC50, lay at 1.97 µM. The “Reduction of HCoV-229E titer” value in series [3] is 2.7 logTCID50/mL. The inhibition at 10 µM in series [1] (Murine coronavirus, DBT cells) came to 97%. The CC50 (commonly the concentration at which the toxic effect on the cells reaches its halfway point) in series [4] was 3.6 µM.

As for `C#Cc1cccc(Nc2ncnc3cc(OCCOC)c(OCCOC)cc23)c1` [Erlotinib], the inhibition at 10 µM in series [1] (Murine coronavirus, DBT cells) came out at 32%.

Take `CO[C@H]1C[C@@H]2CC[C@@H](C)[C@@](O)(O2)C(=O)C(=O)N2CCCC[C@H]2C(=O)O[C@H]([C@H](C)C[C@@H]2CC[C@@H](OCCO)[C@H](OC)C2)CC(=O)[C@H](C)/C=C(\C)[C@@H](O)[C@@H](OC)C(=O)[C@H](C)C[C@H](C)/C=C/C=C/C=C/1C` [Everolimus]: the inhibition at 10 µM in series [1] (Murine coronavirus, DBT cells) came out at 46%.

Consider `Cc1ncc(NC(=O)c2ccc(CN3CCN(C)CC3)c(C(F)(F)F)c2)cc1Nc1nccc(-c2cccnc2)n1` [Flumatinib], for which the inhibition at 10 µM in series [1] (Murine coronavirus, DBT cells) came to 83%.

On to `Cc1cccc(-c2nn3c(c2-c2ccnc4ccc(C(N)=O)cc24)CCC3)n1` [Galunisertib], for which the inhibition at 10 µM in series [1] (Murine coronavirus, DBT cells) came to 26%.

For the compound `C=CC(=O)N1CCC[C@@H](n2nc(-c3ccc(Oc4ccccc4)cc3)c3c(N)ncnc32)C1` [Ibrutinib], the inhibition at 10 µM in series [1] (Murine coronavirus, DBT cells) was -69%.

Turning to `CC[C@H](Nc1ncnc2nc[nH]c12)c1nc2cccc(F)c2c(=O)n1-c1ccccc1` [Idelalisib], in series [1] (Murine coronavirus, DBT cells), the inhibition at 10 µM stood at 17%.

Turning to `Cc1ccc(NC(=O)c2ccc(CN3CCN(C)CC3)cc2)cc1Nc1nccc(-c2cccnc2)n1` [Imatinib], the inhibition at 10 µM in series [1] (Murine coronavirus, DBT cells) turned out to be 81%.

Take `CS(=O)(=O)CCNCc1ccc(-c2ccc3ncnc(Nc4ccc(OCc5cccc(F)c5)c(Cl)c4)c3c2)o1` [Lapatinib]: the inhibition at 10 µM in series [1] (Murine coronavirus, DBT cells) came to 88%.

For `C[C@]1(O)C[C@@H](c2nc(-c3ccc4ccc(-c5ccccc5)nc4c3)c3c(N)nccn32)C1` [Linsitinib], the inhibition at 10 µM in series [1] (Murine coronavirus, DBT cells) was 46%.

Regarding `COc1cc2nccc(Oc3ccc(NC(=O)NC4CC4)c(Cl)c3)c2cc1C(N)=O` [Lonvatinib], the inhibition at 10 µM in series [1] (Murine coronavirus, DBT cells) was -12%.

Consider `Cc1cn(-c2cc(NC(=O)c3ccc(C)c(Nc4nccc(-c5cccnc5)n4)c3)cc(C(F)(F)F)c2)cn1` [Nilotinib], for which, in series [1] (Murine coronavirus, DBT cells), the inhibition at 10 µM came out at 66%.

Turning to `COC(=O)c1ccc2c(c1)NC(=O)/C2=C(\Nc1ccc(N(C)C(=O)CN2CCN(C)CC2)cc1)c1ccccc1` [Nintedanib], the inhibition at 10 µM in series [1] (Murine coronavirus, DBT cells) is 95%.

For the compound `C=CC(=O)Nc1cc(Nc2nccc(-c3cn(C)c4ccccc34)n2)c(OC)cc1N(C)CCN(C)C` [Osimertinib], in series [1] (Murine coronavirus, DBT cells), the inhibition at 10 µM amounted to 98%.

As for `CC(=O)c1c(C)c2cnc(Nc3ccc(N4CCNCC4)cn3)nc2n(C2CCCC2)c1=O` [Palbociclib], the inhibition at 10 µM in series [1] (Murine coronavirus, DBT cells) stood at 5%.

As to `Cc1ccc(Nc2nccc(N(C)c3ccc4c(C)n(C)nc4c3)n2)cc1S(N)(=O)=O` [Pazopanib], in series [1] (Murine coronavirus, DBT cells), the inhibition at 10 µM turned out to be 20%.

On to `Cc1ccc(C(=O)Nc2ccc(CN3CCN(C)CC3)c(C(F)(F)F)c2)cc1C#Cc1cnc2cccnn12` [Ponatinib], for which, in series [1] (Murine coronavirus, DBT cells), the inhibition at 10 µM is 98%.

Regarding `CNC(=O)c1cc(Oc2ccc(NC(=O)Nc3ccc(Cl)c(C(F)(F)F)c3)c(F)c2)ccn1` [Regorafenib], in series [1] (Murine coronavirus, DBT cells), the inhibition at 10 µM stood at 65%.

As to `CN(C)C(=O)c1cc2cnc(Nc3ccc(N4CCNCC4)cn3)nc2n1C1CCCC1` [Ribociclib], the inhibition at 10 µM in series [1] (Murine coronavirus, DBT cells) is -4%.

For `CNCc1ccc(-c2[nH]c3cc(F)cc4c3c2CCNC4=O)cc1` [Rucaparib], in series [1] (Murine coronavirus, DBT cells), the inhibition at 10 µM is -48%.

Consider `N#CC[C@H](C1CCCC1)n1cc(-c2ncnc3[nH]ccc23)cn1` [Ruxolitinib], for which the inhibition at 10 µM in series [1] (Murine coronavirus, DBT cells) was -46%.

Regarding `CNC(=O)c1cc(Oc2ccc(NC(=O)Nc3ccc(Cl)c(C(F)(F)F)c3)cc2)ccn1` [Sorafenib], the inhibition at 10 µM in series [1] (Murine coronavirus, DBT cells) is 74%.

In the case of `CCN(CC)CCNC(=O)c1c(C)[nH]c(/C=C2\C(=O)Nc3ccc(F)cc32)c1C` [Sunitinib], the inhibition at 10 µM in series [1] (Murine coronavirus, DBT cells) worked out at 96%.

In the case of `CO[C@H]1C[C@@H]2CC[C@@H](C)[C@@](O)(O2)C(=O)C(=O)N2CCCC[C@H]2C(=O)O[C@H]([C@H](C)C[C@@H]2CC[C@@H](OC(=O)C(C)(CO)CO)[C@H](OC)C2)CC(=O)[C@H](C)/C=C(\C)[C@@H](O)[C@@H](OC)C(=O)[C@H](C)C[C@H](C)/C=C/C=C/C=C/1C` [Temsirolimus], the inhibition at 10 µM in series [1] (Murine coronavirus, DBT cells) worked out at 4%.

Regarding `COc1cc2nccc(Oc3ccc(NC(=O)Nc4cc(C)on4)c(Cl)c3)c2cc1OC` [Tivozanib], the inhibition at 10 µM in series [1] (Murine coronavirus, DBT cells) turned out to be 29%.

On to `C[C@@H]1CCN(C(=O)CC#N)C[C@@H]1N(C)c1ncnc2[nH]ccc12` [Tofacitinib], for which the inhibition at 10 µM in series [1] (Murine coronavirus, DBT cells) was -7%.

For `CC(=O)Nc1cccc(-n2c(=O)n(C3CC3)c(=O)c3c(Nc4ccc(I)cc4F)n(C)c(=O)c(C)c32)c1` [Trametinib], the inhibition at 10 µM in series [1] (Murine coronavirus, DBT cells) was -40%.

Turning to `COc1cc2c(Nc3ccc(Br)cc3F)ncnc2cc1OCC1CCN(C)CC1` [Vandetanib], in series [2], half-maximal inhibition (IC50) was put at 0.79 µM. Besides, in series [5], the “Lung CCL2 level” value was “significantly reduced; also recorded: decreased”, the “Lung CCL3 level” value is “significantly reduced; also recorded: decreased”, the “Lung CCL4 level” value is on record as “reduced; also recorded: decreased” and the “Lung IL-6 level” value was “statistically significantly reduced”. Besides, in series [5], the “Lung IL-10 level” value is “statistically significantly reduced”; the “Lung TNF-α level” value is “statistically significantly reduced”; the “Lung pathology / inflammatory cell infiltrates” value was “mitigated inflammatory cell infiltrates”; the “Lung viral load (viral RNA, RT-PCR)” value is “did not reduce”. For the same compound, in series [5] (listed as vandetanib), the “Lung IFN-1β level” value is reported as “restored the levels; also recorded: rescued”, the “Lung IL-6 level” value was “reduces”, the “Lung IL-10 level” value is recorded as “reduces” and the “Lung TNF-α level” value is given as “reduces”. Further, in series [5] (listed as vandetanib), the “Lung pathology / inflammatory cell infiltrates” value is reported as “clear protective effect; also recorded: significant treatment effect with mild infiltration” and the “Lung viral load (viral RNA, RT-PCR)” value is listed as “no significant reduction; also recorded: not observed”. Moreover, in series [3], the “Reduction of HCoV-229E titer” value was above 3. For the same compound, in series [6], the “Absorption from the gut” value is “well absorbed”, the Average half-life is given as 19 days, the “Excreted via the feces” value is 44% and the “Excreted via the urine” value was 25%. Also, in series [6], the Protein-bound is reported as 92-94%, the Terminal excretion half-life is recorded as 20 days and the “Time to peak blood plasma concentrations” value is 4 to 10 h. For the same compound, the inhibition at 10 µM in series [1] (Murine coronavirus, DBT cells) is 97%. In addition, the half-inhibitory concentration (IC50) (usually the point on the concentration scale where inhibition reaches its midpoint) in series [1] (Murine coronavirus, DBT cells, FIG. 5, read-out: IC50 against MHV) amounted to 1.6 µM. In series [4], the midpoint of cytotoxicity, the CC50, lay at 4.1 µM.

Regarding `CCCS(=O)(=O)Nc1ccc(F)c(C(=O)c2c[nH]c3ncc(-c4ccc(Cl)cc4)cc23)c1F` [Vemourafenib], the inhibition at 10 µM in series [1] (Murine coronavirus, DBT cells) was -3%.

In the case of `CCC(CC)COC(=O)[C@H](C)N[P@](=O)(OC[C@H]1O[C@@](C#N)(c2ccc3c(N)ncnn23)[C@H](O)[C@@H]1O)Oc1ccccc1` [remdesivir], the half-inhibitory concentration (IC50) in series [2] was determined as 0.11 µM.

Take Alisertib: the “% Inhibition MHV-DBT cells 10 μM” value in series [1] was 19%.

On to Crizotinib, for which the “% Inhibition MHV-DBT cells 10 μM” value in series [1] is listed as 96%. Also, the “Calu-3 result (toxicity)” value in series [7] is listed as “toxic”.

For the compound bevacizumab, in series [8], the Patients discharged was 65%, the “Patients with improvement in oxygen-support status” value is given as 92% and the “Patients with worsened oxygen-support status or died” value is reported as “none”.

These data come from patent US20250332170A1, “VANDETANIB REDUCES INFLAMMATORY CYTOKINES AND AMELIORATES COVID-19” (Collaborations Pharmaceuticals, Inc., priority 2021, published 2025).
